This is an account of results in patent publication US6358701B1, “DNA molecules encoding Ctenocephalides felis glutamate gated chloride channels” (Merck & Co., Inc., priority 1997, dated 2002).

Read-outs that look alike come from different tables or passages of the source.

The test system of assay [1] is CfGluCl-1 (C. felis GluCl channel). Briefly: Two microelectrode voltage clamp of Xenopus oocytes expressing CfGluCl-1. The following applies: for ability to activate CfGluCl-1: agonists for other types of ligand-gated chloride channels. Format: cell-based, Ctenocephalides felis. As for the experimental part: The full-length cDNA encoding CfGluCl-1 in plasmid vector pBluescript (Stratagene, LaJolla, Calif.) is linearized and capped cRNA transcripts are synthesized using appropriate oligonucleotide primers and the mMESSAGE mMACHINE in vitro RNA transcription kit (Ambion). Xenopus laevis oocytes were prepared and injected using standard methods as described (Arena et al., 1991, Mol. Pharmacol. 40: 368-374; Arena et al, 1992, Mol. Brain Res. 15: 339-348). Adult female Xenopus laevis were anesthetized with 0.17% tricaine methanesulfonate and the ovaries were surgically removed and placed in a dish consisting of (mM): NaCl 82.5, KCl 2, MgCl2 1, CaCl2 1.8, HEPES 5 adjusted to pH 7.5 with NaOH (OR-2). Ovarian lobes were broken open, rinsed several times, and gently shaken in OR-2 containing 0.2% collagenase (Sigma, Type IA) for 2-5 hours. When approximately 50% of the follicular layers were removed, Stage V and VI oocytes were selected and placed in media consisting of (mM): NaCl 86, KCl 2, MgCl2 1, CaCl2 1.8, HEPES 5, Na pyruvate 2.5, theophylline 0.5, gentamicin 0.1 adjusted to pH 7.5 with NaOH (ND-96) for […] before injection. For most experiments, oocytes were injected with 10 ng of cRNA in 50 nl of RNase free water. Control oocytes were injected with 50 nl of water. Oocytes were incubated for 1-5 days in ND-96 supplemented with […] gentamycin, 2.5 mM Na pyruvate and 0.5 mM theophylline before recording. Incubations and collagenase digestion were carried out at […].
Voltage-clamp studies were conducted with the two microelectrode voltage clamp technique using a Dagan CA1 amplifier (Dagan Instruments, Minneapolis, Minn.). The current passing microelectrodes were filled with 0.7M KCl plus 1.7M K3-citrate and the voltage recording microelectrodes were filled with 1.0M KCl. The extracellular solution for most experiments was saline consisting of (mM): NaCl 96, BaCl2 3.5, MgCl2 0.5, CaCl2 0.1, HEPES 5, adjusted to pH 7.5 with NaOH. The extracellular chloride concentration was reduced in some experiments by equimolar replacement of NaCl with the sodium salt of the indicated anion. Experiments were conducted at 21-24° C. Data were acquired using the program Pulse and most analysis was performed with the companion program Pulsefit (Instrutech Instruments, Great Neck, N.Y.) or with Igor Pro (Wavemetrics, Lake Oswego, Oreg.). Data were filtered (fc, −3db) at 1 kHz, unless otherwise indicated.
FIG. 5A and FIG. 5B show the activation of CfGluCl-1 by glutamate. […] The duration of exposure to glutamate is indicated by the solid bar at top. FIG. 5B shoes the concentration-response curve for glutamate. Peak outward current is plotted vs. glutamate concentration. The solid curve is the best fit to the equation I/Imax={1+(EC50/[glutamate])^n}^−1. […] Agonists for other types of ligand-gated chloride channels were also tested for the ability to activate
Each curve represents the difference between the current measured with and without 10 μM glutamate. The voltage was ramped from −120 to +60 mV at 1 volt/second. Chloride concentration was reduced from 104 mM to 8.2 mM by equimolar substitution of NaCl by Na-methanesulfonate or Na-gluconate. Each current-voltage relationship was fit to a seventh order polynomial using non-linear least squares analysis and the reversal potential was taken as the x-intercept of this polynomial.
A single [IVM-PO4] was tested on each oocyte. The ordinate is the maximal current induced by IVM-PO4 normalized by the peak current induced by 100 μM glutamate, a maximally effective concentration. The error bars indicate ±S.E.M. The holding potential was 0 mV for both sets of measurements. The filled circles represent data for CfGluCl-1.
(1) I=Iivm,max/{1+(EC50/[IVM-PO4])^n}

Another assay has as its target DmGluCl1 (Drosophila melanogaster, UniProt Q94900). The note with it: holding potential −80 mV; cited from earlier work.

Sequence of DmGluCl1 (Q94900 23-456 S345N): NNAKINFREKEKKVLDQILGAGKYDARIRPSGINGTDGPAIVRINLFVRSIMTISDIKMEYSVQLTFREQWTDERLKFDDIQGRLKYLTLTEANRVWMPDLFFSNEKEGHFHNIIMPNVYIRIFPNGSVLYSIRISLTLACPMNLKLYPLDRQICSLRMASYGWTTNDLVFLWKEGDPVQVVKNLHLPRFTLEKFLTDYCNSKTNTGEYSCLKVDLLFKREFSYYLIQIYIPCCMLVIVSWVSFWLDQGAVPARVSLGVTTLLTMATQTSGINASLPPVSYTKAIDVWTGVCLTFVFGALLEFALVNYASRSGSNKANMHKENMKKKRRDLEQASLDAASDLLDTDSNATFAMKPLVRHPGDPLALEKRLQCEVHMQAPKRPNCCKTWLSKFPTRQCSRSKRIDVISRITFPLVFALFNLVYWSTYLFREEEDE

With `NCCCC(=O)O` [GABA], in assay [1], the “ability to activate CfGluCl-1” value is “inactive”. Same read-out and setting: with `CC(=O)OCC[N+](C)(C)C` [acetylcholine] the entry was “inactive”. Regarding `N[C@@H](CCC(=O)O)C(=O)O` [glutamate], the EC50 in assay [1] (experiment of FIG. 5B, fit to I/Imax={1+(EC50/[glutamate])^n}^−1, read-out: EC50 for activation of CfGluCl-1 (peak outward current vs. concentration)) was 9300 nM. For the compound `NCC(=O)O` [glycine], the “ability to activate CfGluCl-1” value in assay [1] was “inactive”. The same measure, in the same setting: with `NCCc1c[nH]cn1` [histamine] the entry was “inactive”; with `NCc1cc(=O)[nH]o1` [muscimol], “inactive”.

In assay [1] (0 mV measurements vs. earlier −80 mV data), ivermectin phosphate [IVM-PO4] yielded an increase in potency of 10 fold. For the same compound, the “agonist activity at the flea GluCl channel encoded by CfGluCl-1” value in assay [1] (FIGS. 7A and B) is reported as “agonist”. For the same compound, the “Iivm,max (maximal current normalized by the peak current induced by 100 μM glutamate)” value in assay [1] (holding potential 0 mV) came to 0.718. In addition, the EC50 in assay [1] (holding potential 0 mV, fit to equation (1), read-out: EC50 for activation of CfGluCl-1) was 2.93 nM. At DmGluCl1, the EC50 was 41 nM, the “Iivm,max on DmGluCl1” value is listed as 0.35 and the “n (exponent of equation (1)) on DmGluCl1” value is given as 1.2.
